Biological target: T1, PD brain-derived a-syn aggregates (Homo sapiens, UniProt P37840)
T1 construct: from tissue; host or cells: human PD donor brain, sarkosyl-insoluble 100,000 x g pellet
Assay: Micro-radiobinding competition assay against Example-1 [^3H-1] (Table 8)
Type: binding
Settings: for Competition at 100 nM (%): 100 nM non-radiolabelled example compound vs Example-1 [^3H-1] ligand; for Competition at 100 nM (%) / Competition at 1 μM (%): human PD brain-derived a-syn aggregates; for Competition at 1 μM (%): 1 μM non-radiolabelled example compound vs Example-1 [^3H-1] ligand; for Ki: mean of Ki values in independent experiments using PD brain-derived homogenates from two different donors
Procedure: PD brain-derived a-syn aggregates were spotted onto microarray slides. The slides were incubated with the Example-1 [^3H-1] at 6 nM or 20 nM and the example compounds (non-radiolabelled) at 1 μM and 100 nM. In some cases, the non-radiolabelled example compounds were further assessed for a range of different concentrations, varying from 0.05 nM to 2 μM. After incubation, slides were washed and scanned by a real-time autoradiography system (BeaQuant, ai4R). Quantification of the signal was performed by using the Beamage image analysis software (ai4R). […] All measurements were performed with at least two technical replicates. For compounds tested in more than one experiment, the mean of the replicates or K; values in independent experiments is reported.
Results: Example compounds were assessed for their potency to compete with the binding of Example-1 [^3H-1] ligand to PD patient brain-derived a-syn aggregates. Results of the micro-radiobinding competition assay for the example compounds tested are shown in Table 8 as: % competition at 1 μM and 100 nM.

Row | SMILES | Competition at 100 nM (%) | Competition at 1 μM (%) | Ki [nM]
1 | O=C1c2cn(-c3ccc(N4CCCC4)nc3)nc2CN1c1nccnc1F [Example 42] | 57 | 89 | –
2 | O=C1c2cn(-c3ccc(N4CCC[C@H](F)C4)nc3)nc2CN1c1cccnc1 [Example 43] | 47 | 88 | –
3 | N#Cc1cc(N2Cc3nn(-c4ccc(N5CCCC5)nc4)cc3C2=O)ccc1F [Example 46] | 61 | – | –
4 | Cl.O=C1c2cn(-c3ccc(N4CCCC4)nc3)nc2CN1c1ccc(F)nc1 [Example 49] | 48 | 84 | –
5 | Cc1c2c(nn1-c1ccc(N3CC[C@H](F)C3)nc1)CN(c1cccnc1)C2=O [Example 53] | 27 | 54 | –
6 | N#Cc1ccc(N2Cc3nn(-c4ccc(N5CCCC5)nc4)cc3C2=O)cc1F [Example 55] | 11 | 38 | –
7 | N#Cc1ccc(N2Cc3nn(-c4ccc(N5CC[C@@H](F)C5)nc4)cc3C2=O)cc1 [Example 56] | 93 | – | –
8 | N#Cc1ccc(N2Cc3nn(-c4ccc(N5CC[C@@H](F)C5)nc4)cc3C2=O)cn1 [Example 57] | 88 | – | –
9 | Cc1ccc(N2Cc3nn(-c4ccc(N5CC[C@@H](F)C5)nc4)cc3C2=O)cc1 [Example 60] | 70 | 71 | –
10 | Cc1cccc(N2Cc3nn(-c4ccc(N5CC[C@@H](F)C5)nc4)cc3C2=O)c1 [Example 61] | 53 | 80 | –
11 | COc1ccccc1N1Cc2nn(-c3ccc(N4CC[C@@H](F)C4)nc3)cc2C1=O [Example 62] | 8 | 27 | –
12 | O=C1c2cn(-c3ccc(N4CC[C@@H](F)C4)nc3)nc2CN1c1ccc(F)cc1 [Example 63] | 79 | 96 | –
13 | N#Cc1cccc(N2Cc3nn(-c4ccc(N5CC[C@H](F)C5)nc4)cc3C2=O)c1 [Example 65] | 64 | – | –
14 | O=C1c2cn(-c3ccc(N4CC[C@H](F)C4)nc3)nc2CN1c1cccc(F)c1 [Example 70] | 65 | – | –
15 | O=C1c2cn(-c3ccc(N4CC[C@H](F)C4)nc3)nc2CN1c1ccccc1F [Example 71] | 18 | 51 | –
16 | Cc1c2c(nn1-c1ccc(N3CC[C@H](F)C3)nc1)CN(c1ccccn1)C2=O [Example 73] | 33 | 66 | –

Row | SMILES | Competition at 100 nM (%) | Competition at 1 μM (%) | Ki [nM]
17 | Cc1cccc(N2Cc3nn(-c4ccc(N5CC[C@@H](F)C5)nc4)cc3C2=O)n1 [Example 75] | 58 | 73 | –
18 | COc1ccnc(N2Cc3nn(-c4ccc(N5CC[C@@H](F)C5)nc4)cc3C2=O)c1 [Example 76] | 69 | 93 | –
19 | Cc1ccnc(N2Cc3nn(-c4ccc(N5CC[C@H](F)C5)nc4)cc3C2=O)c1 [Example 82] | 84 | – | –
20 | N#Cc1cccc(N2Cc3nn(-c4ccc(N5CC[C@H](F)C5)nc4)cc3C2=O)n1 [Example 84] | 14 | 38 | –
21 | N#Cc1ccnc(N2Cc3nn(-c4ccc(N5CC[C@@H](F)C5)nc4)cc3C2=O)c1 [Example 86] | 64 | – | –
22 | O=C1c2cn(-c3ccc(N4CC[C@H](F)C4)cc3)nc2CN1c1cccnc1 [Example 87] | 67 | 92 | 15
23 | N#Cc1ccnc(N2Cc3nn(-c4ccc(N5CC[C@H](F)C5)nc4)cc3C2=O)c1 [Example 88] | 75 | – | –
24 | O=C1c2cn(-c3ccc(NC4CC(F)C4)nc3)nc2CN1c1ccccn1 (stereo not drawn) [Example 89] | 29 | 75 | –
25 | O=C1c2cn(-c3ccc(NC4CC(F)C4)nc3)nc2CN1c1ccncc1 (stereo not drawn) [Example 90] | 18 | 51 | –
26 | O=C1c2cn(-c3ccc(N4CCCC4)nc3)nc2CN1c1cc(F)ccn1 [Example 100] | 78 | – | –
27 | Cc1cc(N2Cc3nn(-c4ccc(N5CC[C@@H](F)C5)nc4)cc3C2=O)ccn1 [Example 102] | 59 | 68 | –
28 | O=C1c2cn(-c3ccc(N4CCCC4)nc3)nc2CN1c1ncccc1F [Example 103] | 41 | 70 | –
29 | Cc1cc(N2Cc3nn(-c4ccc(N5CC[C@H](F)C5)nc4)cc3C2=O)ccn1 [Example 104] | 86 | 98 | –
30 | COc1cc(N2Cc3nn(-c4ccc(N5CC[C@H](F)C5)nc4)cc3C2=O)ccn1 [Example 106] | 95 | 100 | –
31 | COc1cc(N2Cc3nn(-c4ccc(N5CC[C@@H](F)C5)nc4)cc3C2=O)ccn1 [Example 107] | 92 | 100 | –

Now from value to compound:

Row | Competition at 100 nM (%) | Competition at 1 μM (%) | Ki [nM] | SMILES
32 | 61 | 93 | – | O=C1c2cn(-c3ccc(N4CCCC4)nc3)nc2CN1c1ccnc(F)c1 [Example 41]
33 | 90 | – | – | Nc1cc(N2Cc3nn(-c4ccc(N5CCCC5)nc4)cc3C2=O)ccc1F [Example 44]
34 | 78 | 92 | 52 | O=C1c2cn(-c3ccc(N4CCOCC4)nc3)nc2CN1c1nccnc1F [Example 45]
35 | 39 | – | – | O=C1c2cn(-c3ccc(N4CCCC4)nc3)nc2CN1c1cnccc1F [Example 47]
36 | 80 | 100 | – | O=C1c2cn(-c3ccc(N4CC[C@@H](F)C4)nc3)nc2CN1c1ccccc1 [Example 51]
37 | 26 | 29 | – | Cc1c2c(nn1-c1ccc(N3CC[C@@H](F)C3)nc1)CN(c1cccnc1)C2=O [Example 52]
38 | 85 | 98 | – | COc1ccc(N2Cc3nn(-c4ccc(N5CC[C@@H](F)C5)nc4)cc3C2=O)nc1 [Example 58]
39 | 86 | – | – | N#Cc1ccc(N2Cc3nn(-c4ccc(N5CC[C@H](F)C5)nc4)cc3C2=O)cc1 [Example 59]
40 | 72 | 92 | – | O=C1c2cn(-c3ccc(N4CC[C@@H](F)C4)cn3)nc2CN1c1cccnc1 [Example 66]
41 | 71 | – | – | N#Cc1cccc(N2Cc3nn(-c4ccc(N5CC[C@@H](F)C5)nc4)cc3C2=O)c1 [Example 67]
42 | 63 | – | – | O=C1c2cn(-c3ccc(N4CC[C@@H](F)C4)nc3)nc2CN1c1cccc(F)c1 [Example 68]
43 | 16 | 48 | – | O=C1c2cn(-c3ccc(N4CC[C@@H](F)C4)nc3)nc2CN1c1ccccc1F [Example 69]
44 | 45 | 79 | – | O=C1c2cn(-c3ccc(N4CC[C@H](F)C4)cn3)nc2CN1c1cccnc1 [Example 72]
45 | 22 | 39 | – | COc1cccc(N2Cc3nn(-c4ccc(N5CC[C@@H](F)C5)nc4)cc3C2=O)n1 [Example 74]
46 | 95 | 94 | – | COc1ccnc(N2Cc3nn(-c4ccc(N5CC[C@H](F)C5)nc4)cc3C2=O)c1 [Example 77]
47 | 60 | – | – | COc1cccc(N2Cc3nn(-c4ccc(N5CC[C@H](F)C5)nc4)cc3C2=O)n1 [Example 78]
48 | 74 | – | – | N#Cc1cccc(N2Cc3nn(-c4ccc(N5CC[C@@H](F)C5)nc4)cc3C2=O)n1 [Example 79]
49 | 47 | – | – | Cc1cccc(N2Cc3nn(-c4ccc(N5CC[C@H](F)C5)nc4)cc3C2=O)n1 [Example 83]
50 | 72 | 99 | – | O=C1c2cn(-c3ccc(N4CC[C@@H](F)C4)cc3)nc2CN1c1cccnc1 [Example 85]
51 | 32 | 73 | – | O=C1c2cn(-c3ccc(N4CC[C@H](F)C4)nc3)nc2CN1c1cncc(F)c1 [Example 92]
52 | 12 | 47 | – | Cc1c2c(nn1-c1ccc(N3CC[C@H](F)C3)nc1)CN(c1ccncc1)C2=O [Example 93]
53 | 18 | 70 | – | Cc1c2c(nn1-c1ccc(N3CC[C@@H](F)C3)nc1)CN(c1ccncc1)C2=O [Example 94]
54 | 24 | 39 | – | Cc1c2c(nn1-c1ccc(N3CC[C@@H](F)C3)nc1)CN(c1cnn(C)c1)C2=O [Example 96]
55 | 67 | – | – | N#Cc1cncc(N2Cc3nn(-c4ccc(N5CC[C@@H](F)C5)nc4)cc3C2=O)c1 [Example 109]
56 | 75 | 105 | – | Cc1ccc(N2Cc3nn(-c4ccc(N5CC[C@@H](F)C5)nc4)cc3C2=O)nc1 [Example 110]
57 | 82 | 97 | – | N#Cc1cc(N2Cc3nn(-c4ccc(N5CC[C@H](F)C5)nc4)cc3C2=O)ccn1 [Example 111]
58 | 85 | 105 | – | Cc1ccc(N2Cc3nn(-c4ccc(N5CC[C@H](F)C5)nc4)cc3C2=O)nc1 [Example 112]
59 | 92 | 99 | – | N#Cc1cc(N2Cc3nn(-c4ccc(N5CC[C@@H](F)C5)nc4)cc3C2=O)ccn1 [Example 114]
